According to PMC7402176, “Highlighting the Biological Potential of the Brown Seaweed Fucus spiralis for Skin Applications” (Antioxidants, 2020):

Target: T1, collagenase
T1 construct: gene colG; commercial kit enzyme (EnzChek Gelatinase/Collagenase Assay Kit); native bacterial preparation, usually a mixture of collagenases
Test: fluorescence assay, fluorescein-conjugate gelatin cleavage
Assay type: biochemical
Conditions: positive control; EnzChek kit
Description: fluorescence assay, fluorescein-conjugate gelatin cleavage on collagenase

O=C(O[C@@H]1Cc2c(O)cc(O)cc2O[C@@H]1c1cc(O)c(O)c(O)c1)c1cc(O)c(O)c(O)c1 [(−)-Epigallocatechin gallate]
Collagenase: 4.8 (4.1–5.5) µg/mL
